Experimental data reported in paper PMC9981747, “A covalent BTK ternary complex compatible with targeted protein degradation” (Nature Communications, 2023).
“And” between values parts separate entries of the source, which are not always exact repeats. Equal entries are not always repeated.

Experiments:
BTK^T474I = biological target: T1, BTK^T474I (Homo sapiens, UniProt Q06187+Q13490, T474I); test: Expi293 dose-dependent degradation of BTK gatekeeper mutant; type: cell-based; conditions: Expi293 with cIAP1^FL
T1 construct: we used a full-length BTK (aa1-659) with a C terminal Tobacco Etch Virus protease (TEV) site; expressed in transfected cells; host or cells: Expi293 (HEK293)
Procedure: (§1) Gibco Expi293 cell line Transfection Kit (Cat.# A14524) was cultured according to the manufacturers conditions. Cells were grown at 37 °C with 5% CO2 to 4 × 10^6 cells/mL using an orbital shaker set to 95 RPM. Next cells were split to 2 × 10^6 cells/mL and transfected with plasmid DNA at a 1 µg/mL final concentration in Optimem (Gibco 31985070) using the Expifectamine 293 transfection reagent according to manufacturer’s conditions. After approximately 18 h, enhancers 1 and 2 (provided with kit). Viability was typically about 85%. When cIAP1^FL was transfected, it was detected via α-cIAP1 antibody there was typically some autoubiquitination detected, and thus often appeared as a laddered or smeared band via western blotting. When BTK^FL variants were transfected, they were detected using anti-BTK antibody (D3H5).
For dose-dependent degradation assays, cells were plated in a 24-well format and placed on a separate orbital shaker set to 115 RPM. […] Clarified lysate was harvested and quantified using a Pierce BCA Assay Kit (Cat. #23225), and 20 µg of the sample was loaded into a 4–15% Criterion TGX gel (Bio-Rad, 5678085) and transferred to a nitrocellulose membrane (Life Technologies Cat. #IB23001) using an iBlot 2 (Life Technologies Cat. #IB21001). Proteins were detected using an iBind system (Life Technologies SLF2020). […]

BTK^FL-F559A = biological target: T2, BTK^FL-F559A (Homo sapiens, UniProt Q06187+Q13490, F559A); test: Expi293 dose-dependent degradation of BTK^FL-F559A; type: cell-based; conditions: for BTK^FL-F559A blot signal normalized to DMSO: replicates
T2 construct: we used a full-length BTK (aa1-659) with a C terminal Tobacco Etch Virus protease (TEV) site; expressed in transfected cells; host or cells: Expi293 (HEK293)
Procedure: as §1
For dose-dependent degradation assays, cells were plated in a 24-well format and placed on a separate orbital shaker set to 115 RPM. Each well was treated with prescribed compound concentrations in the same manner as with THP-1 cells, with the exception of using Expifectamine 293 growth medium in place of RPMI 1640 complete media. After approximately 18 h post-treatment cells were harvested, centrifuged at 100 x g at 4 °C, washed twice with ice-cold PBS, and resuspended in RIPA buffer supplemented with a Roche protease inhibitor cocktail (Cat. #11873580001), and benzonase nuclease (Millipore-Sigma Cat# 70664). Each sample was incubated on ice for 30 min with periodic vortexing and centrifuged at 15 Kxg for 20 min. Clarified lysate was harvested and quantified using a Pierce BCA Assay Kit (Cat. #23225), and 20 µg of the sample was loaded into a 4–15% Criterion TGX gel (Bio-Rad, 5678085) and transferred to a nitrocellulose membrane (Life Technologies Cat. #IB23001) using an iBlot 2 (Life Technologies Cat. #IB21001). Proteins were detected using an iBind system (Life Technologies SLF2020). For BTK^T474I and BTK^T474I/C481S we inferred ligand entry into cells via the autoubiquitination and dose-dependent degradation of cIAP1^FL,[58].
Dose-dependent Degradation was analyzed using ImageJ (NIH, version 1.50i). Densiometric analysis was performed, normalized to DMSO signal, and analyzed using GraphPad Prism (Version 9.0.0 (121)). Non-linear fit one-phase decay analysis was used to obtain DC50 values. When we observed a hook effect, some points were excluded as part of the fit. In Supplementary Fig. 7B the complete curve was fit using GraphPad Prism non-linear regression bell-shaped curve where X is the concentration. However, using this method we were unable to obtain stable values for our DC50. SEM error was plotted for each point. When determining statistically significant differences, we used a two-sided student’s unpaired T-Test.

BTK^FL-C481S = biological target: T3, BTK^FL-C481S (Homo sapiens, UniProt Q06187, C481S); test: Covalent modification of BTK^FL-C481S in Expi293 cells, intact mass spectrometry; type: cell-based; conditions: 20 µM
T3 construct: we used a full-length BTK (aa1-659) with a C terminal Tobacco Etch Virus protease (TEV) site; expressed in transfected cells; host or cells: Expi293 (HEK293)
Procedure: For covalent modification detection assays, the compound was added to Expi293 cells after enhancer treatment. At each timepoint 10 mL of cells were harvested, rapidly cooled to 4 °C in an ice bath, and centrifuged at 100 x g at 4 °C for 5 min. The pellet was washed twice with ice-cold PBS, snap-frozen in liquid nitrogen, and stored at −80 °C. Each pellet was resuspended in 0.1 mL ice-cold RIPA Buffer supplemented with 40 µM BCNC (to outcompete any remaining BCCov), protease inhibitor, and benzonase, and sonicated with 10 brief blasts at power 20. Lysate was centrifuged at 15 K x g for 20 min at 4 °C and prepared for western blotting as detailed above. When samples were evaluated for covalent adduct formation, a purification step was required. Briefly, the ~1 mL of clarified lysate was added to 9 mL of FLAG binding buffer (25 mM HEPES 7.5, 300 mM NaCl, 10% glycerol). […]
Each sample was analyzed using intact mass spectrometry under denaturing conditions using an Agilent 6530 QToF Mass Spectrometer coupled with an Agilent Infinity 1290 UPLC chromatography system. Spectra were analyzed using ChemLaunch v1.6.8 (Healex Systems), Mass Hunter V7.0 (Agilent Technologies), and BioConfirm v8.0 (Agilent Technologies). For all proteins analyzed, approximately 2 μl of 0.1–0.4 mg/ml protein sample was added to 8 μl 0.2% trifluoroacetic acid (TFA) (Sigma T6508–100 mL). […]

cIAP1^BUCR1 = cIAP1^BUCR1 (Homo sapiens, UniProt Q13490); test: biochemical
cIAP1^BUCR1, sequence (Q13490 260-618): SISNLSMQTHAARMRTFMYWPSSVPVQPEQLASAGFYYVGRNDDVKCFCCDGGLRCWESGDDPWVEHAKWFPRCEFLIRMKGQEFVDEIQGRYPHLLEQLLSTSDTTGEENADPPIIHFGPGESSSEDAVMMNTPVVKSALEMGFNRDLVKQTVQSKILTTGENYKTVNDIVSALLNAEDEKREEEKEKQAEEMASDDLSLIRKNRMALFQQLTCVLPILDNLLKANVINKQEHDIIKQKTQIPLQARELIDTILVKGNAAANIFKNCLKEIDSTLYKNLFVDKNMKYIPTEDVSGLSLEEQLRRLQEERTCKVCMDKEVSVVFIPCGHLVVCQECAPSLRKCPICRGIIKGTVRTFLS
Procedure: Experiments were performed on a Biacore^TM 8k instrument (GE Healthcare). Biotinylated cIAP1^Bir3 was captured onto a streptavidin sensor chip to levels ranging from 3000–4000 RU. Compound binding experiments were performed in 10 mM HEPES, pH 7.5, 150 mM NaCl, 0.02% BSA, 0.01% P20, and 2% DMSO at 25 °C. Experiments were carried out with n = 4 at 6 concentrations, with the highest concentration of 37 nM and subsequent 3-fold dilutions. BCCov was injected at a flow rate of 30 µL/min, total contact time of 120 s, and dissociation times of 5000 s, using the Single Cycle Kinetics experiment. Binding responses were processed using the Biacore 8k software to zero, x-align, double reference, and correct for excluded volume effects of DMSO in the data.

T2 sequence (Q06187 whole entry F559A, the tested form may be a part): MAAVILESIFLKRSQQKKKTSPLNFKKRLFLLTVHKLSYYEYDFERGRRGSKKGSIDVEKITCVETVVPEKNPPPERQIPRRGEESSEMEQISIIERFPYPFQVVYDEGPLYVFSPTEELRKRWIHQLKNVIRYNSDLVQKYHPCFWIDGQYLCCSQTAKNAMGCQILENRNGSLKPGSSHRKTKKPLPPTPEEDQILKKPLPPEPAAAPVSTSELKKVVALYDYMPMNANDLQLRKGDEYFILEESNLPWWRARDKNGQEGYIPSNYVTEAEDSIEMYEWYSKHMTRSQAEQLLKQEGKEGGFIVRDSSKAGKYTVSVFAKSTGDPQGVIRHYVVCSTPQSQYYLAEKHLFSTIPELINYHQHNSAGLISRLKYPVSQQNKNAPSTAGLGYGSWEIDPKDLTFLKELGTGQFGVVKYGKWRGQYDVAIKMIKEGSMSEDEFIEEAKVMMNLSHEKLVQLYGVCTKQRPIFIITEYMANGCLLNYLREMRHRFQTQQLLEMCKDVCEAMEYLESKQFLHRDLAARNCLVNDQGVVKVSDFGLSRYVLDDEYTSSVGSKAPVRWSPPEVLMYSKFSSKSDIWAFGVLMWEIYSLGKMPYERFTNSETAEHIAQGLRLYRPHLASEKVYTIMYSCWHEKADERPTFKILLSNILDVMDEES
T2 sequence (Q13490 whole entry, the tested form may be a part): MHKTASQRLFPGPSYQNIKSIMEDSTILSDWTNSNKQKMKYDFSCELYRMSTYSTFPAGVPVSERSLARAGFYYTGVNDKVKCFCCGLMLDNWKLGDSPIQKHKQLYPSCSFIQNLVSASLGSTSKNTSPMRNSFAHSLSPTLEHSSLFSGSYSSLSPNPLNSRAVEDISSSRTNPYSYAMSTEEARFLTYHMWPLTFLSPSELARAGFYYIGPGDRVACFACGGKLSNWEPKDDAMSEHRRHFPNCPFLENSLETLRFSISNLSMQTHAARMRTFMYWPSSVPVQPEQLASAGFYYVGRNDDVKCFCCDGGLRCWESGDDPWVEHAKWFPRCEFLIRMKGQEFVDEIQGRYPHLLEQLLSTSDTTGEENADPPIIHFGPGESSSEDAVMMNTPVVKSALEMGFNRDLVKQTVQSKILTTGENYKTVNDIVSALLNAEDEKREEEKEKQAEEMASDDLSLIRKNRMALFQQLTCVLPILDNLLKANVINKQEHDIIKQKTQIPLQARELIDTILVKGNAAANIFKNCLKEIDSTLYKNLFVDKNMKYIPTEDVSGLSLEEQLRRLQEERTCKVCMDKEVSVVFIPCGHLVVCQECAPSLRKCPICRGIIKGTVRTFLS
T1 sequence (Q06187 whole entry T474I, the tested form may be a part): as the sequence (Q06187 whole entry F559A, the tested form may be a part) above, with T474I, A559F counted along it
T1 sequence (Q13490 whole entry, the tested form may be a part): as the sequence (Q13490 whole entry, the tested form may be a part) above
T3 sequence (Q06187 whole entry C481S, the tested form may be a part): as the sequence (Q06187 whole entry F559A, the tested form may be a part) above, with C481S, A559F counted along it

**Q.** How did the “degradation of BTK^T474I” value (BTK^T474I) turn out when `CNC(C)C(=O)NC(C(=O)N1CC(NC(=O)COCCN2CCN(CC=CC(=O)N3CCCC(n4nc(-c5ccc(Oc6ccccc6)cc5)c5c(N)ncnc54)C3)CC2)CC1C(=O)NC1CCCc2ccccc21)C1CCCCC1` (centres unmarked) [BCCov] was run?
**A.** The value was “loss of activity”.

**Q.** And the “BTK^FL-F559A blot signal normalized to DMSO” value (BTK^FL-F559A; 0.00976562 uM)?
**A.** The value was 1.17 and 1.06 and 0.96.

**Q.** What about the “BTK^FL-F559A blot signal normalized to DMSO” value (BTK^FL-F559A; 0.0195312 uM) of the same molecule?
**A.** The value was 1.16 and 1.04 and 1.13.

**Q.** And the “BTK^FL-F559A blot signal normalized to DMSO” value (BTK^FL-F559A; 0.0390625 uM)?
**A.** The value was 0.92 and 0.90 and 0.89.

**Q.** And the “BTK^FL-F559A blot signal normalized to DMSO” value (BTK^FL-F559A; 0.078125 uM)?
**A.** The value was 0.58 (2×) and 0.71.

**Q.** And the “BTK^FL-F559A blot signal normalized to DMSO” value (BTK^FL-F559A; 0.15625 uM)?
**A.** The value was 0.39 and 0.23 and 0.37.

**Q.** And the “BTK^FL-F559A blot signal normalized to DMSO” value (BTK^FL-F559A; 0.3125 uM)?
**A.** The value was 0.25 and 0.12 and 0.28.

**Q.** What about the “BTK^FL-F559A blot signal normalized to DMSO” value (BTK^FL-F559A; 0.625 uM) of the same molecule?
**A.** Its value is 0.23 and 0.10 and 0.24.

**Q.** What about the “BTK^FL-F559A blot signal normalized to DMSO” value (BTK^FL-F559A; 1.25 uM) of the same molecule?
**A.** Its value is 0.22 and 0.0565 and 0.18.

**Q.** What about the “BTK^FL-F559A blot signal normalized to DMSO” value (BTK^FL-F559A; 2.5 uM) of the same molecule?
**A.** The value was 0.23 and 0.05 and 0.19.

**Q.** What about the “BTK^FL-F559A blot signal normalized to DMSO” value (BTK^FL-F559A; 5 uM) of the same molecule?
**A.** Its value is 0.18 and 0.08 and 0.22.

**Q.** What about the “degradation of F559A mutant” value (BTK^FL-F559A; Expi293) of the same molecule?
**A.** Its value is “retains potent cellular degradation”.

**Q.** What about the “covalent adduct formation on BTK^FL-C481S” value (BTK^FL-C481S) of the same molecule?
**A.** The value was “no similar adduct”.

**Q.** And the Kd (cIAP1^BUCR1)?
**A.** Its Kd is no more than 10 nM.
